Results as given in PubChem BioAssay (NCI).
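Method: 48-hour compound exposure of cells in 96-well plates, five concentrations, linear interpolation of endpoints. The concentration for full growth arrest is given as TGI.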 Where a SMILES comes first, the peptide text is derived from it. [ ]: non-standard residue; d: D form. The star is where a group is joined. ξ: configuration not given here. NMeF = CN[CH](Cc1ccccc1)C(=O)O; ξNMe2Val = CC(C)C(C(=O)*)N(C)C; NMeV = CN[CH](C(=O)O)C(C)C; ξNMeV = CNC(C(=O)O)C(C)C; Boc = CC(C)(C)OC(=O)*; OBn = c1ccc(CO*)cc1; OtBu = CC(C)(C)O*

How the values were obtained:
Test in all cases: DTP human tumour cell line panel, 48 h
[1] = test system: SK-OV-3 ovarian
[2] = test system: LXFL 529 NSCLC
[3] = test system: SW-620 colon
[4] = test system: TK-10 renal
[5] = test system: OVCAR-3 ovarian
[6] = test system: HOP-62 NSCLC
[7] = test system: RXF 393 renal
[8] = test system: NCI-H522 lung
[9] = test system: SN12C renal
[10] = test system: SK-MEL-28 melanoma
[11] = test system: RPMI-8226 leukemia
[12] = test system: SK-MEL-2 melanoma
[13] = test system: NCI-H460 lung
[14] = test system: A498 renal
[15] = test system: UACC-257 melanoma
[16] = test system: DU-145 prostate
[17] = test system: T-47D breast
[18] = test system: MCF7 breast
[19] = test system: PC-3 prostate
[20] = test system: MDA-N

Row | Structure (SMILES) | TGI [1] [µM] | TGI [2] [µM] | TGI [3] [µM] | TGI [4] [µM] | TGI [5] [µM] | TGI [6] [µM] | TGI [7] [µM] | TGI [8] [µM] | TGI [9] [µM] | TGI [10] [µM] | TGI [11] [µM] | TGI [12] [µM] | TGI [13] [µM] | TGI [14] [µM] | TGI [15] [µM] | TGI [16] [µM] | TGI [17] [µM] | TGI [18] [µM] | TGI [19] [µM] | TGI [20] [µM]
1 | Cc1nn2c(c1C#N)NNc1c-2sc(=N)nnc1=O | > 100 | > 100 | > 100 | > 100 | > 100 | > 100 | > 100 | > 100 | > 100 | > 100 | > 100 | – | – | – | – | – | – | – | – | –
2 | CCCCOC(=O)NC(=O)c1cn(CCCOC(=O)CCCCCCCCC(=O)OCCCn2cc(C(=O)NC(=O)OCCCC)c(=O)n(C)c2=O)c(=O)n(C)c1=O | – | > 100 | > 100 | > 100 | > 100 | > 100 | > 100 | > 100 | > 100 | > 100 | > 100 | > 100 | > 100 | > 100 | > 100 | – | – | – | – | –
3 | CC(C)C(C(=O)N(C)C(Cc1ccccc1)C(=O)N(C)C(C(=O)N(C)C(C(=O)N1CCCC1C(=O)OC(C)(C)C)C(C)C)C(C)C)N(C)C (stereo not given) (ξNMe2Val-[NMeF][NMeV][NMeV]P-OtBu; configuration not given here) | – | > 100 | > 100 | > 100 | > 100 | > 100 | – | 46.5 | > 100 | – | > 100 | – | > 100 | – | > 100 | – | – | – | – | –
4 | Cc1ccc(NC(=O)C2C3CCC(O3)C2C(=O)O)cc1 (stereo not given) | > 100 | > 74.6 | > 45.1 | > 100 | > 89.7 | > 100 | 48.6 | > 100 | > 81.4 | > 100 | > 68.8 | > 100 | > 100 | > 75.7 | > 100 | – | – | – | – | –
5 | CSC(C1c2ccccc2N(C)c2[nH]c(=O)n(C)c(=O)c21)S(=O)(=O)c1ccc(C)cc1 (stereo not given) | > 100 | > 100 | > 100 | > 100 | > 100 | > 100 | – | 46.6 | > 100 | > 100 | – | > 100 | – | > 100 | > 100 | – | – | – | – | –
6 | CCCCCCCCCCCC[N+]12CC[N+](C)(CC1)CC2 | > 100 | > 100 | > 100 | 5.6 | > 100 | > 100 | 3.34 | 46 | > 100 | > 100 | 41.7 | > 100 | 26.5 | – | > 100 | – | – | – | – | –
7 | Brc1ccc(-c2cc3c(cc2C2SCCS2)OCO3)cc1 | > 100 | > 100 | > 100 | > 100 | 75.9 | > 100 | 77.2 | 40.9 | > 100 | > 100 | – | > 100 | > 100 | 93.3 | > 100 | – | – | – | – | –
8 | O=C(NC1=C(Cl)C(=O)c2ccccc2C1=O)C(=O)C(C(=O)c1ccc2ccccc2c1)C1OC(=O)c2ccccc21 (stereo not given) | 44 | 17.7 | 28.2 | 65.1 | 9.77 | 20.2 | 12.8 | 12.1 | 16.3 | 14.5 | 26.2 | 19.1 | 12 | 18.4 | 5.48 | 23.9 | 29.3 | 16.8 | – | –
9 | CC(C)C(C(=O)N(C)[C@H](C(=O)N1CCC[C@H]1C(=O)N(C)[C@@H](Cc1ccccc1)C(=O)OCc1ccccc1)C(C)C)N(C)C(=O)[C@@H](NC(=O)OC(C)(C)C)C(C)C (stereo not given in full) (Boc-V[ξNMeV][NMeV]P[NMeF]-OBn) | > 31.6 | > 100 | > 31.6 | > 31.6 | > 100 | > 31.6 | > 31.6 | > 100 | > 100 | > 31.6 | > 31.6 | > 31.6 | > 31.6 | > 31.6 | > 31.6 | – | – | – | – | –
10 | CN(C)CCC[N+]1=Nc2cccc3cccc(c23)N1 | > 100 | > 100 | 44.9 | > 100 | > 100 | > 100 | – | 91.2 | > 100 | > 100 | 47.3 | > 100 | > 100 | 92.6 | > 100 | – | – | – | – | –
11 | COC(=O)C(CCC1(C)OCCO1)=[N+]=[N-] | > 100 | > 100 | > 100 | > 100 | > 100 | > 100 | > 100 | > 100 | > 100 | > 100 | – | > 100 | > 100 | > 100 | > 100 | – | – | – | – | –
12 | NC(=S)N1N=C2c3ccccc3CCC[C@H]2[C@@H]1c1ccccc1 | 2.77 | 18.2 | 15.3 | 52 | 1.94 | 19.2 | 6.68 | 1.42 | 19.7 | 32.6 | 17.2 | 5.94 | 12.1 | 23.3 | 25.7 | 9.27 | 29.1 | 25.3 | 18.3 | 0.279
13 | COc1ccc2c(c1)/c(=C/C#N)c1c3ccccc3[n+](C)n21 | > 100 | – | > 39.2 | 20.7 | 4.29 | 29.6 | 50.1 | 20.4 | 47.4 | 14.3 | 8.03 | 36.1 | 32.9 | 13.9 | 19.3 | 8.59 | 10.6 | > 55.9 | 11.7 | 40.9
14 | N#COc1ccc(Oc2ccc(OC#N)cc2)cc1 | > 100 | > 100 | – | > 100 | > 100 | > 100 | > 100 | > 100 | > 100 | > 100 | > 100 | > 100 | > 100 | > 100 | > 100 | – | – | – | – | –
15 | CCCCCCCCCCCCCS(=O)(=O)NCC(N)=O | > 100 | > 100 | > 100 | > 100 | > 100 | > 100 | > 100 | > 100 | > 100 | > 100 | – | > 100 | > 100 | > 100 | > 100 | – | – | – | – | –
16 | COc1ccc(C2=Nc3ccccc3N=C(SC)C2)cc1 | > 100 | > 100 | 41 | > 100 | > 100 | > 100 | > 100 | 63.2 | > 100 | > 100 | – | > 100 | 71.9 | > 100 | 65.7 | – | – | – | – | –
17 | CC12CCc3ccccc3C1=NNC(=O)C2 (stereo not given) | > 100 | > 100 | > 100 | > 100 | > 100 | > 100 | > 100 | > 100 | > 100 | > 100 | > 100 | > 100 | > 100 | > 100 | > 100 | – | – | – | – | –
18 | CC(=O)OCC1OC(n2c(=S)n(-c3ccccc3)c(=O)c3cc(Br)ccc32)C(OC(C)=O)C1OC(C)=O (stereo not given) | > 100 | > 100 | > 100 | – | > 100 | > 100 | > 100 | > 100 | > 100 | > 100 | > 100 | > 100 | > 100 | > 100 | > 100 | – | – | – | – | –
19 | CCO/C(O)=c1/s/c(=C(\C#N)c2nc3ccccc3[nH]2)n(-c2ccccc2)c1=N | > 100 | > 100 | > 100 | > 100 | > 100 | > 100 | > 100 | > 100 | > 100 | > 100 | – | > 100 | > 100 | > 100 | > 100 | – | – | – | – | –
20 | O=C1c2cccnc2-c2nccc3c2c1nc1ccccc13 | 1.19 | – | 0.237 | 2.84 | 0.0987 | 0.514 | 0.459 | 0.281 | 1.03 | 1.47 | 1.17 | 0.525 | 0.606 | 1.03 | 1.06 | 0.962 | 2.08 | 0.0858 | 1.58 | 0.359
21 | COc1ccc(-c2oc3cc(O)c(OC)c(O)c3c(=O)c2O)cc1 | 42.8 | > 100 | > 70.1 | > 100 | > 100 | 25.7 | 50.2 | 57.8 | > 75.2 | > 100 | 31.5 | > 100 | 26.4 | 22.3 | > 100 | > 24.9 | > 100 | 63.7 | > 100 | > 100
22 | CSc1ccc2c(c1)c(CCN)c(C)n2Cc1ccccc1Cl | 4.28 | – | 3.89 | 3.15 | 3.3 | 2.62 | 2.83 | 3 | 3.06 | 3.22 | 3.26 | 3.26 | 3.02 | 3.1 | 3.29 | 3.04 | 3.09 | 3.11 | 2.86 | 3.11
23 | O=C1Nc2ccc(Cl)c(I)c2C1=O | 34.6 | 30.5 | 36.9 | > 100 | 52.3 | 34.8 | 29.8 | 32 | 30.9 | 31.7 | – | 34.2 | 39.7 | – | 33 | – | – | – | – | –
24 | CC1CN(CCO)CCN1c1ccccc1 (stereo not given) | > 100 | – | > 100 | > 100 | > 100 | > 100 | > 100 | > 100 | > 100 | > 100 | > 100 | > 100 | > 100 | > 100 | > 100 | > 100 | > 100 | > 100 | > 100 | > 100
25 | CC#COS(=O)(=O)c1ccc(C)cc1 | > 100 | > 100 | > 100 | > 100 | > 100 | > 100 | – | > 100 | > 100 | – | 60.2 | > 100 | > 100 | – | > 100 | – | – | – | – | –
26 | COc1ccc([C@H]2CC3C(=O)N(c4ccc(OC)cc4)C(=O)C3c3[nH]c4ccccc4c32)cc1 (stereo not given in full) | > 100 | > 100 | > 100 | > 100 | > 100 | > 100 | – | > 100 | > 100 | > 100 | – | > 100 | > 100 | > 100 | > 100 | – | – | – | – | –
